According to article PMC8216263 (Pharmaceutical Biology, 2021):

Assays:
[1] = Single- and multiple-dose plasma pharmacokinetics of GA and PCA after oral RLQ in healthy subjects; assay type: in vivo, human; conditions: LC-MS/MS after oral RLQ
Protocol: The study protocol was approved by the Ethics Committee of the Second Affiliated Hospital of Tianjin University of Traditional Chinese Medicine. […] Subjects were offered standard meals at 4 and 10 h after dosing. Water was not permitted during the hour before and the hour after dosing, except for 240 mL administered with dosing; additional water intake was allowed at all other times.
In the single-dose study, 8 g of RLQ was administered orally on day 1. A 7-d washout time was designed between single-dose and multiple-dose pharmacokinetic studies. In the multiple-dose study, subjects received multiple doses of RLQ (8 g, t.i.d.) for seven consecutive days from day 8 to day 14 and a single dose of RLQ (8 g) on the morning of day 15. […] Additional pre-dose samples were collected in the morning on days 12, 13 and 14. […] All samples were stored at −80 °C until analysis.
All analytes were extracted from plasma and urine samples by simple protein precipitation extraction method using acetonitrile. Briefly, 5 µL of internal standard solution and 300 μL of acetonitrile were added to the spiked blank matrix (100 μL) and vortexed for 3 min and then centrifuged at 13,000 × g for 10 min. The supernatant was transferred and dried using a flow of nitrogen. The residue was re-dissolved in 100 µL of 10% methanol solution containing 0.1% formic acid. An aliquot of 5 µL solution was injected into the LC-MS/MS system for analysis.
The chromatographic separation was performed on an Acquity Ultra Performance LC instrument (Waters, Milford, MA) with a gradient programme in an ACQUITY UPLC BEH C18 column (2.1 mm × 100 mm, 1.7 μm). […] The injection volume was 2 µL. The mass spectrometry analysis was performed on an AB Sciex Triple Quad 5500 MS (Framingham, MA) equipped with an ESI source.
The peak plasma concentration (Cmax) and time to reach the peak plasma concentration (Tmax) were calculated from the actual plasma concentration data. The area under the plasma concentration-time curve from zero to the last measurable concentration (AUC0–t) was calculated via the linear trapezoidal rule. AUC0–∞ was calculated using the following formula: AUC0–∞ = AUC0–t + Ct/ke, where Ct is the last plasma concentration measured. […] The accumulation index was calculated as AUCss/AUC0–t.

[2] = biological target: T1, BCRP (Homo sapiens, UniProt Q9UNQ0); parameters: method as in Ebert et al. 2006; conditions: Caco-2 cells pre-treated with quercetin, ref Ebert et al. 2006; cited from earlier work
T1 sequence (Q9UNQ0 1-655): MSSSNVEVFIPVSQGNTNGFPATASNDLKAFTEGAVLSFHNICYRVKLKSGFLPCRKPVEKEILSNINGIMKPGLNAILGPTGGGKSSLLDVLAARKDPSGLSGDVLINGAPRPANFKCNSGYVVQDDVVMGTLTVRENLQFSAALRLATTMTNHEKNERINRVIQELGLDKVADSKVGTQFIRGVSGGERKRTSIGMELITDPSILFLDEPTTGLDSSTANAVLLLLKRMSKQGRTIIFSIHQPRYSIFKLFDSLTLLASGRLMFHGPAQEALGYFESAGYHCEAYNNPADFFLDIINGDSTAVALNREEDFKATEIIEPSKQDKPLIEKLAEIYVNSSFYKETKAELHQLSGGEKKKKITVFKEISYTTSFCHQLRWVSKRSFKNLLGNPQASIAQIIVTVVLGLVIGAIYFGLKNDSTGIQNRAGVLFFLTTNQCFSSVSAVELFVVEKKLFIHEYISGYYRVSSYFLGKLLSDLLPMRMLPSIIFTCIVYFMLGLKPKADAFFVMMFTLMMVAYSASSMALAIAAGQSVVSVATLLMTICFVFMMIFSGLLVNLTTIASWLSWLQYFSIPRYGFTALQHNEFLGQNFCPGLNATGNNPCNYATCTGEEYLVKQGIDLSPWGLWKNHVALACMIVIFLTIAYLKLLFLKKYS

response in human plasma and urine samples [1]	Compound	apical transport of BCRP-mediated benzo(a)pyrene-3-sulphate [2]
little or no response	O=c1c(O)c(-c2ccc(O)cc2)oc2cc(O)cc(O)c12 [kaempferol]	
little or no response	O=c1c(O)c(-c2ccc(O)c(O)c2)oc2cc(O)cc(O)c12 [quercetin]	increase
